Results published in PubChem BioAssay (NCI).
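Values below derive from 48-hour exposures of cells grown in 96-well plates, with endpoints linearly interpolated between the two concentrations bracketing the appropriate inhibition level. The concentration for full growth arrest is given as TGI.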

Columns and labels:
Assay in all cases: growth of human tumour cells (NCI), 48 h
CAKI-1 renal = test system: CAKI-1 renal
MALME-3M melanoma = test system: MALME-3M melanoma
RPMI-8226 leukemia = test system: RPMI-8226 leukemia
MDA-N = test system: MDA-N
UACC-62 melanoma = test system: UACC-62 melanoma
SK-MEL-5 melanoma = test system: SK-MEL-5 melanoma
SF-295 CNS = test system: SF-295 CNS
PC-3 prostate = test system: PC-3 prostate
TK-10 renal = test system: TK-10 renal
OVCAR-8 ovarian = test system: OVCAR-8 ovarian
K-562 leukemia = test system: K-562 leukemia
MDA-MB-435 = test system: MDA-MB-435
SW-620 colon = test system: SW-620 colon
HCT-116 colon = test system: HCT-116 colon
A549 NSCLC = test system: A549 NSCLC
SK-OV-3 ovarian = test system: SK-OV-3 ovarian
HT29 colon = test system: HT29 colon
T-47D breast = test system: T-47D breast
OVCAR-4 ovarian = test system: OVCAR-4 ovarian
SNB-19 CNS = test system: SNB-19 CNS
HCC-2998 colon = test system: HCC-2998 colon
SF-539 CNS = test system: SF-539 CNS
NCI-H522 lung = test system: NCI-H522 lung
IGROV1 ovarian = test system: IGROV1 ovarian
HS 578T breast = test system: HS 578T breast
M14 melanoma = test system: M14 melanoma
CCRF-CEM leukemia = test system: CCRF-CEM leukemia
MDA-MB-231 breast = test system: MDA-MB-231 breast
SK-MEL-28 melanoma = test system: SK-MEL-28 melanoma
U251 CNS = test system: U251 CNS
786-0 renal = test system: 786-0 renal
SNB-75 CNS = test system: SNB-75 CNS
HOP-62 NSCLC = test system: HOP-62 NSCLC
HL-60(TB) leukemia = test system: HL-60(TB) leukemia
NCI-H23 lung = test system: NCI-H23 lung
UO-31 renal = test system: UO-31 renal
DU-145 prostate = test system: DU-145 prostate
SK-MEL-2 melanoma = test system: SK-MEL-2 melanoma
MOLT-4 leukemia = test system: MOLT-4 leukemia
UACC-257 melanoma = test system: UACC-257 melanoma
EKVX NSCLC = test system: EKVX NSCLC
RXF 393 renal = test system: RXF 393 renal
KM12 colon = test system: KM12 colon
NCI-H226 lung = test system: NCI-H226 lung
OVCAR-5 ovarian = test system: OVCAR-5 ovarian
ACHN renal = test system: ACHN renal
SF-268 CNS = test system: SF-268 CNS
NCI/ADR-RES ovarian = test system: NCI/ADR-RES ovarian
NCI-H460 lung = test system: NCI-H460 lung
MCF7 breast = test system: MCF7 breast
HCT-15 colon = test system: HCT-15 colon
HOP-92 NSCLC = test system: HOP-92 NSCLC
SR leukemia = test system: SR leukemia
OVCAR-3 ovarian = test system: OVCAR-3 ovarian
BT-549 breast = test system: BT-549 breast
SN12C renal = test system: SN12C renal
COLO 205 colon = test system: COLO 205 colon
LOX IMVI melanoma = test system: LOX IMVI melanoma
A498 renal = test system: A498 renal

CCN(CC)CCNc1ccc2ncn3c4c(OC)ccc(=O)c4c(O)c1c23
TGI (CAKI-1 renal): > 100 µM | TGI (MALME-3M melanoma): 98.6 µM | TGI (RPMI-8226 leukemia): 17.8 µM | TGI (MDA-N): > 100 µM | TGI (UACC-62 melanoma): > 100 µM | TGI (SK-MEL-5 melanoma): > 39.6 µM | TGI (SF-295 CNS): > 100 µM | TGI (PC-3 prostate): > 100 µM | TGI (TK-10 renal): > 100 µM | TGI (OVCAR-8 ovarian): > 100 µM | TGI (K-562 leukemia): > 100 µM | TGI (MDA-MB-435): > 100 µM | TGI (SW-620 colon): > 43.8 µM | TGI (HCT-116 colon): > 44.3 µM | TGI (A549 NSCLC): > 100 µM | TGI (SK-OV-3 ovarian): > 100 µM | TGI (HT29 colon): > 57.8 µM | TGI (T-47D breast): > 100 µM | TGI (OVCAR-4 ovarian): > 100 µM | TGI (SNB-19 CNS): > 100 µM | TGI (HCC-2998 colon): > 100 µM | TGI (SF-539 CNS): 31.3 µM | TGI (NCI-H522 lung): > 39.7 µM | TGI (IGROV1 ovarian): > 43.8 µM | TGI (HS 578T breast): > 100 µM | TGI (M14 melanoma): > 100 µM | TGI (CCRF-CEM leukemia): > 100 µM | TGI (MDA-MB-231 breast): > 100 µM | TGI (SK-MEL-28 melanoma): 27.1 µM | TGI (U251 CNS): > 100 µM | TGI (786-0 renal): > 100 µM | TGI (SNB-75 CNS): > 100 µM | TGI (HOP-62 NSCLC): > 100 µM | TGI (HL-60(TB) leukemia): > 100 µM | TGI (NCI-H23 lung): > 92.9 µM | TGI (UO-31 renal): > 100 µM | TGI (DU-145 prostate): > 100 µM | TGI (SK-MEL-2 melanoma): > 100 µM | TGI (MOLT-4 leukemia): > 24.6 µM | TGI (UACC-257 melanoma): > 100 µM | TGI (EKVX NSCLC): > 100 µM | TGI (RXF 393 renal): 34.1 µM | TGI (KM12 colon): > 100 µM | TGI (NCI-H226 lung): > 100 µM | TGI (OVCAR-5 ovarian): > 92.7 µM | TGI (ACHN renal): > 100 µM | TGI (SF-268 CNS): > 95.2 µM | TGI (NCI/ADR-RES ovarian): > 50.9 µM | TGI (NCI-H460 lung): > 100 µM | TGI (MCF7 breast): > 70.7 µM | TGI (HCT-15 colon): > 100 µM | TGI (HOP-92 NSCLC): > 62.1 µM | TGI (SR leukemia): > 31.6 µM | TGI (OVCAR-3 ovarian): > 100 µM | TGI (BT-549 breast): > 100 µM | TGI (SN12C renal): > 100 µM | TGI (COLO 205 colon): > 100 µM

O=c1c2ccccc2n2n1Cc1ccccc1C2
TGI (CAKI-1 renal): > 100 µM | TGI (MALME-3M melanoma): > 100 µM | TGI (RPMI-8226 leukemia): > 100 µM | TGI (MDA-N): > 100 µM | TGI (UACC-62 melanoma): > 100 µM | TGI (SK-MEL-5 melanoma): > 100 µM | TGI (SF-295 CNS): > 100 µM | TGI (PC-3 prostate): > 100 µM | TGI (TK-10 renal): > 100 µM | TGI (OVCAR-8 ovarian): > 100 µM | TGI (K-562 leukemia): > 100 µM | TGI (MDA-MB-435): > 100 µM | TGI (SW-620 colon): > 100 µM | TGI (HCT-116 colon): > 100 µM | TGI (A549 NSCLC): > 100 µM | TGI (SK-OV-3 ovarian): > 100 µM | TGI (HT29 colon): > 100 µM | TGI (T-47D breast): > 100 µM | TGI (OVCAR-4 ovarian): > 100 µM | TGI (SNB-19 CNS): > 100 µM | TGI (HCC-2998 colon): > 100 µM | TGI (SF-539 CNS): > 100 µM | TGI (NCI-H522 lung): > 100 µM | TGI (IGROV1 ovarian): > 100 µM | TGI (HS 578T breast): > 100 µM | TGI (CCRF-CEM leukemia): > 100 µM | TGI (MDA-MB-231 breast): > 100 µM | TGI (SK-MEL-28 melanoma): > 100 µM | TGI (U251 CNS): > 100 µM | TGI (786-0 renal): > 100 µM | TGI (SNB-75 CNS): > 100 µM | TGI (HOP-62 NSCLC): > 100 µM | TGI (HL-60(TB) leukemia): > 100 µM | TGI (NCI-H23 lung): > 100 µM | TGI (UO-31 renal): > 100 µM | TGI (DU-145 prostate): > 100 µM | TGI (MOLT-4 leukemia): > 100 µM | TGI (UACC-257 melanoma): > 100 µM | TGI (LOX IMVI melanoma): > 100 µM | TGI (EKVX NSCLC): > 100 µM | TGI (RXF 393 renal): > 100 µM | TGI (KM12 colon): > 100 µM | TGI (A498 renal): > 100 µM | TGI (NCI-H226 lung): > 100 µM | TGI (ACHN renal): > 100 µM | TGI (SF-268 CNS): > 100 µM | TGI (NCI/ADR-RES ovarian): > 100 µM | TGI (NCI-H460 lung): > 100 µM | TGI (MCF7 breast): > 100 µM | TGI (HCT-15 colon): > 100 µM | TGI (HOP-92 NSCLC): > 100 µM | TGI (SR leukemia): > 100 µM | TGI (OVCAR-3 ovarian): > 100 µM | TGI (BT-549 breast): > 100 µM | TGI (SN12C renal): > 100 µM | TGI (COLO 205 colon): > 100 µM
